Test results as given in patent US4976874A, “Control of biofouling in aqueous systems by non-polymeric quaternary ammonium polyhalides” (Great Lakes Chemical Corporation, priority 1989, dated 1990).
Where two headings read alike, the source gives them in different places.

How the values were obtained:
[1] = test system: Pseudomonas aeruginosa; test: % Kill of Pseudomonas aeruginosa; type: cell-based; conditions: read-out: Percent Kill Pseudomonas aeruginosa; for killing at 0.23 µg/mL: 0.23 ppm free bromine; for killing at 0.34 µg/mL: 0.34 ppm free bromine; for killing at 0.2 µg/mL: 0.20 ppm free bromine; for killing at 0.25 µg/mL: 0.25 ppm free bromine
Excerpt: Quaternary ammonium polyhalides and surfactant mixtures thereof have biocidal properties in aqueous systems where oxidizing biocides are compatible; that is, in aqueous systems having a low halogen demand.
The data in Tables 3-5 indicate that the combination of a water soluble liquid quaternary ammonium polyhalide and a surfactant provides an enhanced efficacy over the liquid quaternary ammonium polyhalide alone. This may be a result of the surface active effect on exopolysaccharides and/or biological membranes.

[2] = Japanese Patent Publication No. 49/14,411; cited from earlier work
[3] = Japanese Patent Publication No. 49/14,411; cited from earlier work; remark: listed apart in the source

`CCCCCCCC[N+](C)(C)CCCCCCCC` [Compound 2, N-N-Dimethyl-N,N-dioctylammonium dibromochloride] showed a killing at 0.23 µg/mL ([1]; 1 min, 1 min) of 82%, a killing at 0.23 µg/mL ([1]; 0.05 h, 3 min) of 100% and a killing at 0.23 µg/mL ([1]; 5 min, 5 min) of 100%. For the same compound, the killing at 0.23 µg/mL ([1]; 10 min, 10 min) was 100%.
Compound `COCCOCC[N+](C)(CCOCCOC)CCOCCOC` [Compound 3, N-Methyl-N,N,N-tris(3,6-dioxaheptyl)ammonium diobromoiodide] has a killing at 0.34 µg/mL ([1]; 1 min, 1 min) of 98.6%, a killing at 0.34 µg/mL ([1]; 0.05 h, 3 min) of 100% and a killing at 0.34 µg/mL ([1]; 5 min, 5 min) of 100%. For the same compound, the killing at 0.34 µg/mL ([1]; 10 min, 10 min) was 100%.
Work on `CCCCCCCCN(C)C` [Compound 4, N,N-Dimethyl-N-octylamine hydrotribromide] yielded a killing at 0.34 µg/mL ([1]; 1 min, 1 min) of 99.9%, a killing at 0.34 µg/mL ([1]; 0.05 h, 3 min) of 100% and a killing at 0.34 µg/mL ([1]; 5 min, 5 min) of 100%. For the same compound, the killing at 0.34 µg/mL ([1]; 10 min, 10 min) was 100%.
`CC[N+](C)(C)C` [Compound 5, N-Ethyl-N,N,N-trimethylammonium tribromide] gave a killing at 0.34 µg/mL ([1]; 1 min, 1 min) of 99.9%, a killing at 0.34 µg/mL ([1]; 0.05 h, 3 min) of 100% and a killing at 0.34 µg/mL ([1]; 5 min, 5 min) of 100%. For the same compound, the killing at 0.34 µg/mL ([1]; 10 min, 10 min) was 100%.
Compound `CCC[N+](C)(C)CC` [Compound 6, N,N-Dimethyl-N-ethyl-N-propylammonium pentabromide] has a killing at 0.34 µg/mL ([1]; 1 min, 1 min) of 99.6%, a killing at 0.34 µg/mL ([1]; 0.05 h, 3 min) of 100% and a killing at 0.34 µg/mL ([1]; 5 min, 5 min) of 100%. For the same compound, the killing at 0.34 µg/mL ([1]; 10 min, 10 min) was 100%.
`C[N+](C)(C)CCO` [Compound 7, N-(2-Hydroxyethyl)-N,N,N-trimethylammonium tribromide] gave a killing at 0.2 µg/mL ([1]; 1 min, 1 min) of 56.6%, a killing at 0.2 µg/mL ([1]; 0.05 h, 3 min) of 99.6% and a killing at 0.2 µg/mL ([1]; 5 min, 5 min) of 100%. It also gave a killing at 0.2 µg/mL ([1]; 10 min, 10 min) of 100%.
For `COCCOCCN(CCOCCOC)CCOCCOC` [Compound 8, N,N,.N-tris(3,6-Dioxaheptyl)amine hydrotribromide], the killing at 0.23 µg/mL ([1]; 1 min, 1 min) was 99.9%, the killing at 0.23 µg/mL ([1]; 0.05 h, 3 min) was 100% and the killing at 0.23 µg/mL ([1]; 5 min, 5 min) was 100%. It also gave a killing at 0.23 µg/mL ([1]; 10 min, 10 min) of 100%.
With `CCC[N+](CCOCCOC)(CCOCCOC)CCOCCOC` [Compound 9, N-Propyl-N,N,N-tris(3,6-dioxaheptyl)-ammonium tribromide] the killing at 0.23 µg/mL ([1]; 1 min, 1 min) was 21.5%, the killing at 0.23 µg/mL ([1]; 0.05 h, 3 min) was 82% and the killing at 0.23 µg/mL ([1]; 5 min, 5 min) was 100%. For the same compound, the killing at 0.23 µg/mL ([1]; 10 min, 10 min) was 100%.
`CCCCCCCCCCCCCC[N+](C)(C)Cc1ccccc1` [Compound 11, N-Benzyl-N,N-dimethyl-N-myristyl-ammonium dibromochloride] gave a killing at 0.34 µg/mL ([1]; 1 min, 1 min) of 100%, a killing at 0.34 µg/mL ([1]; 0.05 h, 3 min) of 100% and a killing at 0.34 µg/mL ([1]; 5 min, 5 min) of 100%. For the same compound, the killing at 0.34 µg/mL ([1]; 10 min, 10 min) was 100%.
`CCOCC[N+](C)(C)C` [Compound 12, N-Ethoxyethyl-N,N,N-trimethylammonium tribromide] showed a killing at 0.34 µg/mL ([1]; 1 min, 1 min) of 100%, a killing at 0.34 µg/mL ([1]; 0.05 h, 3 min) of 100% and a killing at 0.34 µg/mL ([1]; 5 min, 5 min) of 99.9%. It also gave a killing at 0.34 µg/mL ([1]; 10 min, 10 min) of 100%.
For `CCC[N+](C)(C)CC` [Compound 13, N,N-Dimethyl-N-ethyl-N-propylammonium dichlorobromide], the killing at 0.25 µg/mL ([1]; 1 min, 1 min) was 100%, the killing at 0.25 µg/mL ([1]; 0.05 h, 3 min) was 100% and the killing at 0.25 µg/mL ([1]; 5 min, 5 min) was 100%. For the same compound, the killing at 0.25 µg/mL ([1]; 10 min, 10 min) was 100%.
Work on `CC[N+](C)(C)C` [Compound 14, N-Ethyl-N,N,N-tri-methylammonium dichlorobromide] yielded a killing at 0.2 µg/mL ([1]; 1 min, 1 min) of 100%, a killing at 0.2 µg/mL ([1]; 0.05 h, 3 min) of 100% and a killing at 0.2 µg/mL ([1]; 5 min, 5 min) of 100%. The killing at 0.2 µg/mL ([1]; 10 min, 10 min) was 100%.
`CCCCCCCCCC[N+](C)(C)CCCCCCCCCC` [Compound 15, N,N-Didecyl-N,N-dimethyl-ammonium dibromochloride] showed a killing at 0.3 µg/mL ([1]; 1 min) of 100%, a killing at 0.3 µg/mL ([1]; 0.05 h) of 100% and a killing at 0.3 µg/mL ([1]; 5 min) of 100%. For the same compound, the killing at 0.3 µg/mL ([1]; 10 min) was 100%.
For `CCCCCCCCCCCCCCCC[n+]1ccccc1` [cetylpyridinium tribromide], the biocidal properties [2] is given as “having biocidal properties” and the water solubility [3] is given as “water insoluble”.
For `CCCCCCCCCCCCCCCC[N+](C)(C)C.[Br-]` [cetyltrimethylammonium bromide], the biocidal properties [2] is listed as “having biocidal properties”.
For `CCCCCCCCCCCCCCCC[N+](C)(C)C` [cetyltrimethylammonium tribromide], the biocidal properties [2] is given as “having biocidal properties” and the water solubility [3] is given as “water insoluble”.
